{
  "source": "ChEMBL document CHEMBL3259589",
  "about": "“Synthesis and radical-scavenging activity of a dimethyl catechin analogue” (Bioorg Med Chem Lett, 2014)",
  "test": "Antioxidant activity assessed as galvinoxyl free radical scavenging activity measured as second order rate constant by spectrophotometry",
  "type": "functional",
  "data": [
    {"smiles": "Oc1cc(O)c2c(c1)O[C@H](c1ccc(O)c(O)c1)[C@@H](O)C2", "values": [
      {"measurement": "K (10'1mol/dm3/s)", "value": 3.87}
    ]}
  ]
}
